This passage reports IC50, inhibition and EC50 results from ChEMBL document CHEMBL4265878, “Dual-Specificity Tyrosine Phosphorylation-Regulated Kinase 1A (DYRK1A) Inhibitors as Potential Therapeutics” (J Med Chem, 2018).

One assay has as its target Casein kinase 2 (Rattus norvegicus, UniProt P19139). Put plainly: Inhibition of rat liver CK2 using RRRADDSDDDDD as substrate after 10 mins in presence of [gamma-33P]ATP.
For assay [1], the target named is Dual specificity protein kinase CLK1 (Homo sapiens, UniProt P49759). Put plainly: Inhibition of CLK1 (unknown origin).
The target in assay [2] is Dual specificity protein kinase CLK2 (Homo sapiens, UniProt P49760). As to the kind of experiment: Inhibition of CLK2 (unknown origin).
For assay [3], the target named is T1, Dual specificity tyrosine-phosphorylation-regulated kinase 2 (Homo sapiens, UniProt Q92630).
T1 sequence (Q92630 whole entry): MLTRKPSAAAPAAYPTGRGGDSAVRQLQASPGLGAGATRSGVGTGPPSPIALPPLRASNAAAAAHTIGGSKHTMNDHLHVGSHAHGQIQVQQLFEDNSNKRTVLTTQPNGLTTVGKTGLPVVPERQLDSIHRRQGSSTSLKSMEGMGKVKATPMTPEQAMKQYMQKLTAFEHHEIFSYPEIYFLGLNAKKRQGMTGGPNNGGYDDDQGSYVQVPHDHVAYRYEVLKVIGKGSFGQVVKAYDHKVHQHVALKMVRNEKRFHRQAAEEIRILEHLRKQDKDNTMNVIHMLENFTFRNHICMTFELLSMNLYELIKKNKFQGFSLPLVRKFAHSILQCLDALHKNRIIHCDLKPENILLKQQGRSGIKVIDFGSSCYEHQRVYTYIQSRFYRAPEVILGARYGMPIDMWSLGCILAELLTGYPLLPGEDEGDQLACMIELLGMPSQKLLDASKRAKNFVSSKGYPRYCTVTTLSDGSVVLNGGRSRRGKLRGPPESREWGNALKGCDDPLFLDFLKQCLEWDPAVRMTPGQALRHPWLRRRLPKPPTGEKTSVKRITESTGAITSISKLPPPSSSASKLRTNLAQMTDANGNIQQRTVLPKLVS
As to the kind of experiment: Inhibition of DYRK2 (unknown origin).

Assay [4] addresses T2, Dual specificity tyrosine-phosphorylation-regulated kinase 1A (Homo sapiens, UniProt Q13627). Put plainly: Inhibition of DYRK1A (unknown origin) at 10 uM relative to control.
Assay [5] deals with T2, Dual specificity tyrosine-phosphorylation-regulated kinase 1A. As to the kind of experiment: Inhibition of human recombinant full length GST-tagged DYRK1A expressed in baculovirus expression system assessed as decrease in tau phosphorylation at S396 preincubated for 10 mins followed by tau addition by Western blot analysis. (In general: A western blot detects proteins with antibodies after separation by electrophoresis.)

In a further assay the test system is SW-620. Put plainly: cells. The settings on record: Homo sapiens, SW-620, 96 h.
For assay [6], the target named is T2, Dual specificity tyrosine-phosphorylation-regulated kinase 1A. Put plainly: Inhibition of DYRK1A (unknown origin) by cell-based assay.
Assay [7] deals with Cyclin-dependent kinase 9 (Homo sapiens, UniProt P50750). As to the kind of experiment: Inhibition of human full-length N-terminal GST-fused CDK9 (1 to 372 residues) expressed in baculovirus expression system using MBP as substrate after 100 mins by TR-FRET assay.
The target in assay [8] is Glycogen synthase kinase-3 (Homo sapiens, UniProt P49840+P49841). Put plainly: Inhibition of GSK-3 (unknown origin). The assay is classed as protein assay.
Assay [9] in a line: Inhibition of CLK (unknown origin). On the set-up: species or system Homo sapiens.
The target of assay [10] is T3, Dual specificity tyrosine-phosphorylation-regulated kinase 1A (Rattus norvegicus, UniProt Q63470). Put plainly: Inhibition of rat recombinant GST-fused DYRK1A expressed in Escherichia coli in presence of [gamma-33P]ATP after 30 mins by scintillation counting analysis.
In assay [11] the target is T2, Dual specificity tyrosine-phosphorylation-regulated kinase 1A. As to the kind of experiment: Inhibition of GST-tagged DYRK1A (unknown origin) expressed in Escherichia coli DH5alpha at 1 uM using RRRFRPASPLRGPPK as substrate after 30 mins by kinase-glo luminescence assay relative to control. On the technique in general: Kinase-Glo measures the ATP left after a reaction by luminescence.

Assay [12] addresses T3, Dual specificity tyrosine-phosphorylation-regulated kinase 1A. As to the kind of experiment: Inhibition of rat DYRK1A using KKISGRLSPIMTEQ as substrate in presence of [gamma-33P]ATP after 30 mins by scintillation counting analysis.
Assay [13] has as its target T2, Dual specificity tyrosine-phosphorylation-regulated kinase 1A. As to the kind of experiment: Inhibition of DYRK1A (unknown origin).
Assay [14] shares this target. Put plainly: Inhibition of GST-tagged DYRK1A (unknown origin) expressed in Escherichia coli DH5alpha using RRRFRPASPLRGPPK as substrate after 30 mins by kinase-glo luminescence assay.
In assay [15] the target is T4, Amine oxidase [flavin-containing] A (Homo sapiens, UniProt P21397).
T4 sequence (P21397 whole entry): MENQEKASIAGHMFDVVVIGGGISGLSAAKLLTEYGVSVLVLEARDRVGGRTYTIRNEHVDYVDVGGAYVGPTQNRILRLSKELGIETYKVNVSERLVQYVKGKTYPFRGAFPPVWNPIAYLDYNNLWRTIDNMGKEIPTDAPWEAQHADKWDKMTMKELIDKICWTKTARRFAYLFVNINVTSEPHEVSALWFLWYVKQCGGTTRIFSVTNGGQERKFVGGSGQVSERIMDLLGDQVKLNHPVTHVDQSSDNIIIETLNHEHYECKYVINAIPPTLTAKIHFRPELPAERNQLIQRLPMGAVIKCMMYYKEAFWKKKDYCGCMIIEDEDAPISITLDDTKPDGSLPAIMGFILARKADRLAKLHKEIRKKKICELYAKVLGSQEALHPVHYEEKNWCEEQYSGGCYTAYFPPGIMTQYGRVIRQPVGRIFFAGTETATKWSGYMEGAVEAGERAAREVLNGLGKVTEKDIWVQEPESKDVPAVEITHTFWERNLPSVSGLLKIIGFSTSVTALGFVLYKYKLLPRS
Put plainly: Inhibition of human recombinant MAO-A after 1 hr by MAO-Glo assay.

Assay [16] has as its target T5, Dual specificity tyrosine-phosphorylation-regulated kinase 1B (Homo sapiens, UniProt Q9Y463). As to the kind of experiment: Inhibition of human recombinant full length N-terminal GST-tagged DYRK1B expressed in baculovirus expression system using DYRKtide-F as substrate after 1 hr by electrophoretic analysis.
Assay [17] concerns the target T6, MAP kinase-activated protein kinase 5 (Homo sapiens, UniProt Q8IW41).
T6 sequence (Q8IW41 whole entry): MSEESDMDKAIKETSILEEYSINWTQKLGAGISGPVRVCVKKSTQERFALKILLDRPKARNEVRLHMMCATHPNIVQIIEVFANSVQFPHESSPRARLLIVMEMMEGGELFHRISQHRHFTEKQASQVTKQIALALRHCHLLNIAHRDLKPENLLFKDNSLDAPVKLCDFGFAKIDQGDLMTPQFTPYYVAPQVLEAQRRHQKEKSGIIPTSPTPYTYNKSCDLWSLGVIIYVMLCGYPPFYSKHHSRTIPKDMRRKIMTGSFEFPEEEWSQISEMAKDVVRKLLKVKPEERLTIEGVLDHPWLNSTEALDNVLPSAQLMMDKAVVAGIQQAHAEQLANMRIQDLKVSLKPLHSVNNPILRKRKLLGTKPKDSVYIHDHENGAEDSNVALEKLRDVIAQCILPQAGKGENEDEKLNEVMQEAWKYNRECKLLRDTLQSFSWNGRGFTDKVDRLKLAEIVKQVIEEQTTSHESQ
As to the kind of experiment: Inhibition of PRAK (unknown origin).

Assay [18] has as its target T2, Dual specificity tyrosine-phosphorylation-regulated kinase 1A. Put plainly: Inhibition of DYRK1A (unknown origin) at 50 uM.
Assay [19] has as its target T7, MAP kinase-activated protein kinase 5 (Homo sapiens) (UniProt Q8IW41).
T7 sequence (whole entry): T6 sequence (Q8IW41 whole entry)
As to the kind of experiment: Inhibition of PRAK (unknown origin) at 50 uM.

Assay [20] addresses Aurora kinase B (Homo sapiens) (UniProt Q96GD4). As to the kind of experiment: Inhibition of aurora B (unknown origin) at 50 uM.
The target of assay [21] is T5, Dual specificity tyrosine-phosphorylation-regulated kinase 1B. As to the kind of experiment: Inhibition of DYRK1B (unknown origin).

T5 sequence (Q9Y463 whole entry): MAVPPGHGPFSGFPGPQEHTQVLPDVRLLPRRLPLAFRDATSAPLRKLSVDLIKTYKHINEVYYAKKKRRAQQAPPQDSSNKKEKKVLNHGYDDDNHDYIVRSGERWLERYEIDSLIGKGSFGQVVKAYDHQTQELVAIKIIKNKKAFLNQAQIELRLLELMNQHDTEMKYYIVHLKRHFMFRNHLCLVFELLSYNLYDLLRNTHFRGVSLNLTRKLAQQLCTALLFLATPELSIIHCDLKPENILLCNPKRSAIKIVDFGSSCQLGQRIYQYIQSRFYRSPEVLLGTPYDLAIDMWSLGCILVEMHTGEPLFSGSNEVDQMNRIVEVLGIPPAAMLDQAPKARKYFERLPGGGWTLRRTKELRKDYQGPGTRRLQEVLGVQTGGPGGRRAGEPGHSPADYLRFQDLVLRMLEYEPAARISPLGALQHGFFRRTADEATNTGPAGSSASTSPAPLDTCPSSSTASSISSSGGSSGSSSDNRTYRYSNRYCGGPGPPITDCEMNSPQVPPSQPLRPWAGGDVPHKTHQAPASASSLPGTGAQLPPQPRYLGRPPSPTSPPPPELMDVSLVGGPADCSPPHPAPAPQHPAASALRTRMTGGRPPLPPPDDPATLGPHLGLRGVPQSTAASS
Casein kinase 2, sequence (P67874 whole entry): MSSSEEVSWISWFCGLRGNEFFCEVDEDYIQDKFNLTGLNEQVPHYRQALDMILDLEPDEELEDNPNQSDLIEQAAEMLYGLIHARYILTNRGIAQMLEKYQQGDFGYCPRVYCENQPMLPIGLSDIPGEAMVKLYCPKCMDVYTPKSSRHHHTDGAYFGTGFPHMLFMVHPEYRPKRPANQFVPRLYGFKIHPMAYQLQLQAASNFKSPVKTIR
Casein kinase 2, sequence (P19139 whole entry): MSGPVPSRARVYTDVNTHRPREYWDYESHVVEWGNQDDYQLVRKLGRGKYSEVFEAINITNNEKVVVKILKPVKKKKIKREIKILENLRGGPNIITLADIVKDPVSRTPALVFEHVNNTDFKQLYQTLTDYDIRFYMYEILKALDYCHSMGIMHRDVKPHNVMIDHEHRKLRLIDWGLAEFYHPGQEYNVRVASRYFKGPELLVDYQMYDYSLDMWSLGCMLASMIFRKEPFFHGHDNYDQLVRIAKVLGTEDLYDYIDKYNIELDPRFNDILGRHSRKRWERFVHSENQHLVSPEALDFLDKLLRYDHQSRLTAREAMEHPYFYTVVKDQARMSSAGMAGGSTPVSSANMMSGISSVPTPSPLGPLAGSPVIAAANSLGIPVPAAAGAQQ
Aurora kinase B (Homo sapiens), sequence (Q96GD4 whole entry): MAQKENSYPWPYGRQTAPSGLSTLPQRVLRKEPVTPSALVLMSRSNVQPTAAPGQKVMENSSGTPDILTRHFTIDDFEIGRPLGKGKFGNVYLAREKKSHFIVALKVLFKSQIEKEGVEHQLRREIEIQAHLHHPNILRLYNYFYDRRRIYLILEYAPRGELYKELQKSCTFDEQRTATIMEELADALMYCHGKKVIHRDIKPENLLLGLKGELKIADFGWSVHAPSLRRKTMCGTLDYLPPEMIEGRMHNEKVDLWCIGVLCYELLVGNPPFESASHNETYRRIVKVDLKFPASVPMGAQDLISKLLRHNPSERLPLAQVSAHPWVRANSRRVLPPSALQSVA
Dual specificity protein kinase CLK1, sequence (P49759 whole entry): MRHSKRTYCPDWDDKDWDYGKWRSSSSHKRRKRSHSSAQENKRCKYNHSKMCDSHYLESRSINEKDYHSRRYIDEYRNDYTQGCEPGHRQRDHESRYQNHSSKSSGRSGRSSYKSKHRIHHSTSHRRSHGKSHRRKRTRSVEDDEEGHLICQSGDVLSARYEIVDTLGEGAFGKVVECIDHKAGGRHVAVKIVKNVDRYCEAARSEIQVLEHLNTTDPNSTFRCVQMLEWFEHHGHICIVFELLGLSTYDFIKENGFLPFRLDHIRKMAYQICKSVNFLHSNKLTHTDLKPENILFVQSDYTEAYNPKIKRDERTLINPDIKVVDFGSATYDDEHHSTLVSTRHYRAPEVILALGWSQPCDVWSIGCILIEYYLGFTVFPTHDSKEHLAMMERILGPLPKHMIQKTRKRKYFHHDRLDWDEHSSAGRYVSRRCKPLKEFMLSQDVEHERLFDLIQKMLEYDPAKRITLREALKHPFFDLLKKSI
Dual specificity protein kinase CLK2, sequence (P49760 whole entry): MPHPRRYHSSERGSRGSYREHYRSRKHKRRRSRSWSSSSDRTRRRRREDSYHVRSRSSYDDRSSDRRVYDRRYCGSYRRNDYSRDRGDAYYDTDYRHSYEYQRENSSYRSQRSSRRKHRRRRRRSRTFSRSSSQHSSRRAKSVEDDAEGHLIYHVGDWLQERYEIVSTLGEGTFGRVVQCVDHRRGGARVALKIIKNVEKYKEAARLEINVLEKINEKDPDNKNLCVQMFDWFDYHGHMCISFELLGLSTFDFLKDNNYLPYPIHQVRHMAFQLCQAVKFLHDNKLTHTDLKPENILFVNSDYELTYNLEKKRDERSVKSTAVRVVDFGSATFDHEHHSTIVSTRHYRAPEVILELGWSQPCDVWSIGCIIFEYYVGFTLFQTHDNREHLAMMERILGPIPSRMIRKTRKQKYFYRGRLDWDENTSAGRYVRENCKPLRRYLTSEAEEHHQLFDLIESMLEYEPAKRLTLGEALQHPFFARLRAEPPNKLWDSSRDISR
Cyclin-dependent kinase 9, sequence (P50750 whole entry, the tested form may be a part): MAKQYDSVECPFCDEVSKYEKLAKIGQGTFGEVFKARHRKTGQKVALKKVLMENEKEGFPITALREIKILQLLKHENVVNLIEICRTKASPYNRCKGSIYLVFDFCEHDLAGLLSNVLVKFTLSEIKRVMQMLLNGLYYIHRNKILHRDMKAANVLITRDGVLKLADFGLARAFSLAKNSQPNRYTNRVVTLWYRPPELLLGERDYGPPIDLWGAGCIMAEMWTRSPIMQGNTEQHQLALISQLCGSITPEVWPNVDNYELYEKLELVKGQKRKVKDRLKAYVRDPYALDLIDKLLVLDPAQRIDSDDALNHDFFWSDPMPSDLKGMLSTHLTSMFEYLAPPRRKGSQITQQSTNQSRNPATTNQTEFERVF

As usually defined, the IC50 is the midpoint of a concentration-inhibition curve. Take `Cc1cc(=O)oc2cc3cc(O)ccc3cc12`: at Casein kinase 2, the IC50 came out at 32300 nM.
For `CN1C(=O)/C(=C\c2ccc3c(c2)OCO3)N=C1N`, the 50% inhibitory concentration (IC50) in [1] was 100 nM; in [2] it was 910 nM; in assay [3], 490 nM.
As a reminder, the inhibition is the share of the control response that was lost under treatment. A high value points to a response far below the control. Molecule `c1cc(-c2ccc3ncn(-c4ccc5[nH]cnc5c4)c3c2)ccn1` registered an inhibition in assay [4] of 60 to 100%.
Still for that read-out and setting: next, `COc1ccc(-n2cnc3ccc(-c4ccncc4)cc32)cc1`: 60 to 100%.
For `Cc1nccc2c1[nH]c1cc(O)ccc12`, the IC50 in assay [5] was 90 nM.
Usually EC50 stands for the concentration giving half of the maximal effect. For `COc1cc2[nH]c(=O)c(C(=O)Nc3cc(C(=O)NCc4cccc(Cl)c4)ccc3C)cc2cc1CCCN1CCOCC1`, the EC50 with SW-620 was determined as 306 nM.
In turn, `O=C(O)c1ccc(-n2cnc3ccc(-c4ccncc4)cc32)cc1` showed an inhibition in assay [4] of 60 to 100%.
In [6], `CC(C)[C@H](CO)Nc1nc(Nc2cccc(Cl)c2)c2ncn(C(C)C)c2n1` [PURVALANOLA] registered an IC50 of 300 nM.
Regarding `CCOc1ccccc1CNc1nc(C)nc2[nH]cc(-c3ccnc(N)c3)c12`, in [7], half-maximal inhibition (IC50) was put at 10 nM.
For the molecule `O=C1NC(Nc2ccccc2)=N/C1=C/c1ccc2c(c1)OCO2`, the figures for the IC50 in [8] and in assay [9] were 410 nM and 60 to 70 nM, respectively.
With `CC[C@H](CO)Nc1nc(NCc2ccccc2)n2ncc(C(C)C)c2n1`, in assay [10], the IC50 was 1300 nM.
In turn, `COc1ccc2c(c1)[nH]c1c(C)nccc12` gave an inhibition in assay [11] above 60%.
On to `NC(=O)c1ccc(-n2cnc3ccc(-c4ccncc4)cc32)cc1`, for which, in assay [4], the inhibition was in the range of 60 to 100%.
With `O=c1[nH]c(NCCO)nc2ccc3[nH]ncc3c12`, the IC50 in assay [12] worked out at 610 nM.
On to `CS(=O)(=O)c1ccc(-n2cnc3ccc(-c4ccncc4)cc32)cc1`, for which the inhibition in [4] was in the range of 60 to 100%.
In [13], `Brc1c(Br)c(Br)c2[nH]cnc2c1Br` returned an IC50 of 2100 nM.
Regarding `COc1ccc2c3ccnc(C)c3n(CC#N)c2c1`, the inhibition in assay [11] turned out to be 92%. In addition, it took 81 nM to reach half-maximal inhibition in assay [14] (IC50).
`N#Cc1ccc(-n2cnc3ccc(-c4ccncc4)cc32)cc1` gave an inhibition in [4] of 60 to 100%.
Take `COc1ccc2c3ccnc(Cl)c3n(CC#N)c2c1`: the IC50 in assay [15] was above 10000 nM. This molecule also yielded an inhibition in assay [11] of 90%.
As to `N=C1NC(=O)/C(=C/c2ccc3c(c2)CCO3)S1`, the IC50 in [16] was 24.1 nM.
Turning to `Cc1cc(=O)oc2cc3c([N+](=O)[O-])c(O)ccc3cc12`, the IC50 on Casein kinase 2 is 370 nM.
Regarding `O=C(O[C@@H]1Cc2c(O)cc(O)cc2O[C@@H]1c1cc(O)c(O)c(O)c1)c1cc(O)c(O)c(O)c1` [EPIGALOCATECHIN GALLATE], the IC50 in assay [17] is 1000 nM.
For the molecule `CN(C)c1nc2c(Br)c(Br)c(Br)c(Br)c2[nH]1`, the IC50 in [13] amounted to 400 nM.
`COc1ccc(/C=C/C(=O)c2c(O)cc(OC)cc2OC)cc1`: the inhibition amounted to 90% in assay [18], 91% in [19] and 84% in [20].
`COc1cc(-c2cc(=O)c3c(O)cc(O)c(C/C=C(\C)CCC=C(C)C)c3o2)ccc1O`: the IC50 is 620 nM in assay [13] and 6400 nM in assay [21].
In the case of `COC(=O)c1ccc(-n2cnc3ccc(-c4ccncc4)cc32)cc1`, the inhibition in assay [4] lay within 60 to 100%.
